Columns and labels:
[1] = tested on: paddy rice plant (cultivar: Nihonbare); test: Test Example 3: phytotoxicity test for transplanted paddy rice plant; type: in vivo; settings: dosage 1000 g/ha; transplanted rice, treated 5 days after transplantation; 21 days after treatment
In short: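 Clay loam soil was placed in a 75 cm^2 plastic pot and flooded to a water depth of 5 cm. Two Nihonbare paddy rice plants at the two-leaf stage were transplanted 1 cm deep and grown in a hot house. After treatment, pots stayed in the hot house for 21 days, and phytotoxicity was then graded against an untreated control.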

bulrush [2] = test: Test Example 1: herbicidal efficacy on rice paddy weeds pre-emergence; type: in vivo, Scirpus juncoides; settings: dosage 1000 g/ha, 21 days
bulrush [3] = test: Test Example 2: herbicidal efficacy on rice paddy weeds post-emergence; type: in vivo, Scirpus juncoides; settings: dosage 1000 g/ha; post-emergence, one leaf stage; 21 days after treatment
barnyard glass = test: as above; type: in vivo, Echinochloa crus-galli; settings: dosage 1000 g/ha; post-emergence, one leaf stage; 21 days after treatment
In short: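 Plastic pots of 75 cm^2 were filled with clay loam soil and sown with barnyard glass and bulrush seeds, then topped with 75 cm^3 soil containing false pimpernel seeds. The pots were flooded to 5 cm water depth and held in a hot house. Twenty-one days after treatment, herbicidal efficacy was graded against an untreated control.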

[4] = tested on: transplanted paddy rice plant and Bulrush; test: Test Example 5: selectivity between transplanted paddy rice plant and weeds; type: in vivo; settings: (highest dosage with no phytotoxicity to paddy rice)/(lowest dosage with effective level 4 on Bulrush); rice 3000-100 g/ha, Bulrush 300-10 g/ha; 21 days
Protocol: (§1) The standard of judgment for herbicidal efficacy (degree of growth inhibition) and phytotoxicity 4 . . . 90%-100% of herbicidal efficacy or phytotoxicity 3 . . . 70%-89% of herbicidal efficacy or phytotoxicity 2 . . . 40%-69% of herbicidal efficacy or phytotoxicity 1 . . . 1%-39% of herbicidal efficacy or phytotoxicity 0 . . . 0% of herbicidal efficacy or phytotoxicity
Phytotoxicity test for transplanted paddy rice plants was carried out, as in Test Example 3, by the treatment of 3000, 1000, 300 and 100 (g/ha of the active ingredient) dosage, and herbicidal test to weed post-emergence was carried out to Burlush seeded as in Test Example 2 treating at 300, 100, 30 and 10 (g/ha) dosage. The pots were kept in a hot house for 21 days after the treatment, and the phytotoxicity and the herbicidal efficacy was investigated and evaluated according to the standard in Test Example 1 by comparing with the untreated control. […] Further, as a comparative compound, the compound No. 6-28 described in the JP-A-2004-107322 was used.

false pimpernel [5] = test: Test Example 1: herbicidal efficacy on rice paddy weeds pre-emergence; type: in vivo, Lindernia pyxidaria; settings: dosage 1000 g/ha, 21 days
false pimpernel [6] = test: Test Example 2: herbicidal efficacy on rice paddy weeds post-emergence; type: in vivo, Lindernia pyxidaria; settings: dosage 1000 g/ha; post-emergence, one leaf stage; 21 days after treatment
bulrush [7] = test: Test Example 4: low dosage test for rice paddy weeds; type: in vivo, Scirpus juncoides; settings: 300 g/ha as an active ingredient; plants treated at the one leaf stage; 21 days after treatment; vs untreated control
Excerpt: as §1
A 75 cm^2 plastic pot was filled with soil (clay loam) and planted seeds of bulrush which is a rice paddy weed. After covering the top with 75 cm^3 soil, the pot was filled with water so that the soil submerged under 5 cm depth of water and kept in a hot house. The test plants, at the one leaf stage, were treated with the solution of a formulation containing the compound of the present invention as an active ingredient at the predetermined effective dosage (300 g/ha as an active ingredient). The pots were kept in a hot house for 21 days after the treatment and the herbicidal efficacy was investigated and evaluated according to the standard in Test Example 1 by comparing with the untreated control. Further, as a comparative compound, the compound No. 6-28 described in the JP-A-2004-107322 was used.

Row | Compound | Phytotoxicity to paddy rice [1] | Bulrush pre (herbicidal efficacy grade) (bulrush [2]) | Bulrush post (herbicidal efficacy grade) (bulrush [3]) | Burnyard grass post (herbicidal efficacy grade) (barnyard glass) | Selective Index [4] | False pimpernel pre (herbicidal efficacy grade) (false pimpernel [5]) | False pimpernel post (herbicidal efficacy grade) (false pimpernel [6]) | Herbicide effect to Bulrush (bulrush [7])
1 | CC(C)COC(=O)N(c1ccccc1CN1CC(C)(C(C)C)OC1=O)S(=O)(=O)C(F)(F)F (racemic) [1-102] | 1 (1%-39% of herbicidal efficacy or phytotoxicity) | 4 (90%-100% of herbicidal efficacy or phytotoxicity) | 4 (90%-100% of herbicidal efficacy or phytotoxicity) | 4 (90%-100% of herbicidal efficacy or phytotoxicity) | 10 | 4 (90%-100% of herbicidal efficacy or phytotoxicity) | 4 (90%-100% of herbicidal efficacy or phytotoxicity) | 4 (90%-100% of herbicidal efficacy or phytotoxicity)
2 | CCC1(C)CN(Cc2ccccc2N(C(=O)OCC(C)(C)C)S(=O)(=O)C(F)(F)F)C(=O)O1 (racemic) [1-105] | 1 (1%-39% of herbicidal efficacy or phytotoxicity) | 4 (90%-100% of herbicidal efficacy or phytotoxicity) | 4 (90%-100% of herbicidal efficacy or phytotoxicity) | 4 (90%-100% of herbicidal efficacy or phytotoxicity) | 10 | 4 (90%-100% of herbicidal efficacy or phytotoxicity) | 4 (90%-100% of herbicidal efficacy or phytotoxicity) | 4 (90%-100% of herbicidal efficacy or phytotoxicity)
3 | CCC1(C)CN(Cc2ccccc2N(C(=O)OC)S(=O)(=O)C(F)(F)F)C(=O)O1 (racemic) [1-108] | 2 (40%-69% of herbicidal efficacy or phytotoxicity) | 4 (90%-100% of herbicidal efficacy or phytotoxicity) | 4 (90%-100% of herbicidal efficacy or phytotoxicity) | 4 (90%-100% of herbicidal efficacy or phytotoxicity) | 30 | 4 (90%-100% of herbicidal efficacy or phytotoxicity) | 4 (90%-100% of herbicidal efficacy or phytotoxicity) | 4 (90%-100% of herbicidal efficacy or phytotoxicity)
4 | COC(=O)N(c1ccccc1CN1CC(C)(C2CC2)OC1=O)S(=O)(=O)C(F)(F)F (racemic) [1-110] | 2 (40%-69% of herbicidal efficacy or phytotoxicity) | 4 (90%-100% of herbicidal efficacy or phytotoxicity) | 4 (90%-100% of herbicidal efficacy or phytotoxicity) | 4 (90%-100% of herbicidal efficacy or phytotoxicity) | ≧30 | 4 (90%-100% of herbicidal efficacy or phytotoxicity) | 4 (90%-100% of herbicidal efficacy or phytotoxicity) | 4 (90%-100% of herbicidal efficacy or phytotoxicity)
5 | CCOC(=O)N(c1ccccc1CN1CC(C)(C2CC2)OC1=O)S(=O)(=O)C(F)(F)F (racemic) [1-111] | 2 (40%-69% of herbicidal efficacy or phytotoxicity) | 4 (90%-100% of herbicidal efficacy or phytotoxicity) | 4 (90%-100% of herbicidal efficacy or phytotoxicity) | 4 (90%-100% of herbicidal efficacy or phytotoxicity) | ≧30 | 4 (90%-100% of herbicidal efficacy or phytotoxicity) | 4 (90%-100% of herbicidal efficacy or phytotoxicity) | 4 (90%-100% of herbicidal efficacy or phytotoxicity)
6 | CCCOC(=O)N(c1ccccc1CN1CC(C)(C2CC2)OC1=O)S(=O)(=O)C(F)(F)F (racemic) [1-112] | 2 (40%-69% of herbicidal efficacy or phytotoxicity) | 4 (90%-100% of herbicidal efficacy or phytotoxicity) | 4 (90%-100% of herbicidal efficacy or phytotoxicity) | 4 (90%-100% of herbicidal efficacy or phytotoxicity) | 30 | 4 (90%-100% of herbicidal efficacy or phytotoxicity) | 4 (90%-100% of herbicidal efficacy or phytotoxicity) | 4 (90%-100% of herbicidal efficacy or phytotoxicity)
7 | CCCCOC(=O)N(c1ccccc1CN1CC(C)(C2CC2)OC1=O)S(=O)(=O)C(F)(F)F (racemic) [1-113] | 1 (1%-39% of herbicidal efficacy or phytotoxicity) | 4 (90%-100% of herbicidal efficacy or phytotoxicity) | 4 (90%-100% of herbicidal efficacy or phytotoxicity) | 4 (90%-100% of herbicidal efficacy or phytotoxicity) | 30 | 4 (90%-100% of herbicidal efficacy or phytotoxicity) | 4 (90%-100% of herbicidal efficacy or phytotoxicity) | 4 (90%-100% of herbicidal efficacy or phytotoxicity)
8 | COC(=O)N(c1ccccc1CN1CC(C)(C(C)C)OC1=O)S(=O)(=O)C(F)(F)F (racemic) [1-114] | 2 (40%-69% of herbicidal efficacy or phytotoxicity) | 4 (90%-100% of herbicidal efficacy or phytotoxicity) | 4 (90%-100% of herbicidal efficacy or phytotoxicity) | 4 (90%-100% of herbicidal efficacy or phytotoxicity) | 30 | 4 (90%-100% of herbicidal efficacy or phytotoxicity) | 4 (90%-100% of herbicidal efficacy or phytotoxicity) | 4 (90%-100% of herbicidal efficacy or phytotoxicity)
9 | CCOC(=O)N(c1ccccc1CN1CC(C)(C(C)C)OC1=O)S(=O)(=O)C(F)(F)F (racemic) [1-115] | 3 (70%-89% of herbicidal efficacy or phytotoxicity) | 4 (90%-100% of herbicidal efficacy or phytotoxicity) | 4 (90%-100% of herbicidal efficacy or phytotoxicity) | 4 (90%-100% of herbicidal efficacy or phytotoxicity) | 10 | 4 (90%-100% of herbicidal efficacy or phytotoxicity) | 4 (90%-100% of herbicidal efficacy or phytotoxicity) | 4 (90%-100% of herbicidal efficacy or phytotoxicity)
10 | CCCOC(=O)N(c1ccccc1CN1CC(C)(C(C)C)OC1=O)S(=O)(=O)C(F)(F)F (racemic) [1-116] | 1 (1%-39% of herbicidal efficacy or phytotoxicity) | 4 (90%-100% of herbicidal efficacy or phytotoxicity) | 4 (90%-100% of herbicidal efficacy or phytotoxicity) | 4 (90%-100% of herbicidal efficacy or phytotoxicity) | 10 | 4 (90%-100% of herbicidal efficacy or phytotoxicity) | 4 (90%-100% of herbicidal efficacy or phytotoxicity) | 4 (90%-100% of herbicidal efficacy or phytotoxicity)
